Reference: patent publication US9045445B2, “Glycine transporter-1 inhibitors, methods of making them, and uses thereof” (Albany Molecular Research, Inc., priority 2010, dated 2015)
Counter-ions that a name gives are not always drawn.

biological target: T1, glycine transporter-1 (GlyT-1) (Homo sapiens, UniProt P48067); assay: [14C]glycine uptake assay in JAR cells endogenously expressing GlyT-1 (scintillation proximity); assay type: cell-based; conditions: JAR cells, [14C]glycine 5 μM, 3 hour incubation; read-out: GlyT-1 IC50
T1 construct: JAR cells (ATCC#HTB-144), which endogenously express GlyT-1; host or cells: JAR human choriocarcinoma cells
T1 sequence (P48067 1-706): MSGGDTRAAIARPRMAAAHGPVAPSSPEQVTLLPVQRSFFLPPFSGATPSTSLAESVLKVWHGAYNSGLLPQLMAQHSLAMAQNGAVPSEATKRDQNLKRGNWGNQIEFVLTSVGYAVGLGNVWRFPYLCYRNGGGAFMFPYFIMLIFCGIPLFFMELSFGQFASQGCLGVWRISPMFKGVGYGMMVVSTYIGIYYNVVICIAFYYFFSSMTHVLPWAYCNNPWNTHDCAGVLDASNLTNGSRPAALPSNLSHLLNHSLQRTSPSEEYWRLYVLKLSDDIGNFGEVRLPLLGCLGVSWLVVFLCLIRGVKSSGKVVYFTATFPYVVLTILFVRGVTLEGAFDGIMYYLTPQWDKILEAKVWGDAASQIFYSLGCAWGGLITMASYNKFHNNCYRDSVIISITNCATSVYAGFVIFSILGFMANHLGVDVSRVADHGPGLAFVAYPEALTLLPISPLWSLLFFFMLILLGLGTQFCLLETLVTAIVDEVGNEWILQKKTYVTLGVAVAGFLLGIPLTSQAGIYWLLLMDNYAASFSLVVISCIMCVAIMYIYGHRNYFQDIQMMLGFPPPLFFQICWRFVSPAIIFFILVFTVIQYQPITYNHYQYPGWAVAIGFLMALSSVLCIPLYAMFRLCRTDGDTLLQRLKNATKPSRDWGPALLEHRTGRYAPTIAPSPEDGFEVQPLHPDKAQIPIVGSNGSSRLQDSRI
How it was run: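 Human choriocarcinoma JAR cells (endogenous GlyT-1) attached overnight, then pre-incubated 10 min at room temperature with compound in pH 7.4 Hepes uptake buffer containing 5 mM alanine and 0.75% DMSO. Uptake of 5 μM [14C]glycine over 3 h at 37 °C read by scintillation proximity; IC50 from four-parameter fit of nine-point curves.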

Question: `Cn1cc(S(=O)(=O)N2CCN(C3(CNC(=O)c4ccc(Cl)cc4Cl)CCC(F)(F)CC3)CC2)nn1` [compound 228, 2,4-Dichloro-N-((4,4-difluoro-1-(4-(1-methyl-1H-l,2,3-triazol-4-ylsulfonyl)piperazin-1-yl)cyclohexyl)methyl) benzamide Hydrochloride] was tested. Which IC50 did it give?
Answer: 1 nM

Question: Which IC50 does the source give for `CCCS(=O)(=O)N1CCN(C2(CNC(=O)c3cc(F)c(F)cc3Cl)CCC(F)(F)CC2)CC1` [compound 264, 2-Chloro-N-((4,4-difluoro-1-(4-(propylsulfonyl)piperazin-1-yl)cyclohexyl)methyl)-4,5-difluorobenzamide Hydrochloride] here?
Answer: 48 nM

Question: For `Cn1cnc(S(=O)(=O)N2CCN(C3(CNC(=O)c4ccccc4F)CCC(F)(F)CC3)CC2)c1` [compound 175, N-((4,4-Difluoro-1-(4-(1-methyl-1H-imidazol-4-ylsulfonyl)piperazin-1-yl)cyclohexyl)methyl)-2-fluorobenzamide Hydrochloride], which IC50 is on record?
Answer: 57 nM

Question: Which IC50 does the source give for `CCCS(=O)(=O)N1CCN(C2(CNC(=O)c3ccc(Cl)c(Cl)c3)CCCC2)CC1` [compound 76, 3,4-Dichloro-N-((1-(4-(propylsulfonyl)piperazin-1-yl)cyclopentyl)methyl) benzamide Hydrochloride] here?
Answer: 1820 nM

Question: `Cn1cnc(S(=O)(=O)N2CCN(C3(CNC(=O)c4ccc(Cl)cc4F)CCC(F)(F)CC3)CC2)c1` [compound 165, 4-Chloro-N-((4,4-difluoro-1-(4-(1-methyl-1H-imidazol-4-ylsulfonyl)piperazin-1-yl)cyclohexyl)methyl)-2-fluorobenzamide Hydrochloride] was tested. Which IC50 did it give?
Answer: 29 nM

Question: With `CCS(=O)(=O)N1CCN(C2(CNC(=O)c3c(Cl)ccc(C(F)(F)F)c3Cl)CCC(F)(F)CC2)CC1` [compound 215, 2,6-Dichloro-N-((1-(4-(ethylsulfonyl)piperazin-1-yl)-4,4-difluorocyclohexyl)methyl)-3-(trifluoromethyl) benzamide Hydrochloride] as the compound, how does the IC50 read?
Answer: 2460 nM

Question: `CCCS(=O)(=O)N1CCN(C2(CNC(=O)c3ccccc3C)CCC(F)(F)CC2)CC1` [compound 134, N-((4,4-Difluoro-1-(4-(propylsulfonyl)piperazin-1-yl)cyclohexyl)methyl)-2-methylbenzamide Hydrochloride] was tested. Which IC50 did it give?
Answer: 70 nM

Question: Which IC50 does the source give for `Cn1cnc(S(=O)(=O)N2CCN(C3(CNC(=O)c4c(F)cccc4C(F)(F)F)CCC(F)(F)CC3)CC2)c1` [compound 172, N-((4,4-Difluoro-1-(4-(1-methyl-1H-imidazol-4-ylsulfonyl)piperazin-1-yl)cyclohexyl)methyl)-2-fluoro-6-(trifluoromethyl)benzamide Hydrochloride] here?
Answer: 3 nM

Question: How did the IC50 turn out when `CCCS(=O)(=O)N1CCN(C2(CNC(=O)c3ccc(F)cc3C(F)(F)F)CCC(F)(F)CC2)CC1` [compound 148, N-((4,4-Difluoro-1-(4-(propylsulfonyl)piperazin-1-yl)cyclohexyl)methyl)-4-fluoro-2-(trifluoromethyl)benzamide Hydrochloride] was run?
Answer: 30 nM

Question: Which IC50 does the source give for `CCCS(=O)(=O)N1CCN(C2(CNC(=O)c3ccc(F)cc3C)CCC(F)(F)CC2)CC1` [compound 145, N-((4,4-Difluoro-1-(4-(propylsulfonyl)piperazin-1-yl)cyclohexyl)methyl)-4-fluoro-2-methylbenzamide Hydrochloride] here?
Answer: 52 nM

Question: How did the IC50 turn out when `CC(NC(=O)c1ccc(C(F)(F)F)cc1Cl)C1(N2CCN(S(=O)(=O)c3cn(C)nn3)CC2)CCCC1` (stereo not drawn) [compound 282, 2-Chloro-N-(1-(1-(4-(1-methyl-1H-1,2,3-triazol-4-ylsulfonyl)piperazin-1-yl)cyclopentyl)ethyl)-4-(trifluoromethyl)benzamide Hydrochloride] was run?
Answer: 29 nM

Question: With `CCS(=O)(=O)N1CCN(C2(CNC(=O)c3c(F)cc(Cl)cc3Cl)CCC(F)(F)CC2)CC1` [compound 210, 2,4-Dichloro-N-((1-(4-(ethylsulfonyl)piperazin-1-yl)-4,4-difluorocyclohexyl)methyl)-6-fluorobenzamide Hydrochloride] as the compound, how does the IC50 read?
Answer: 72 nM

Question: How did the IC50 turn out when `CCCS(=O)(=O)N1CCN(C2(CNC(=O)c3ccc(Cl)cc3C)CCC(F)(F)CC2)CC1` [compound 153, 4-Chloro-N-((4,4-difluoro-1-(4-(propylsulfonyl)piperazin-1-yl)cyclohexyl)methyl)-2-methylbenzamide Hydrochloride] was run?
Answer: 69 nM

Question: For `Cc1cccc(F)c1C(=O)NCC1(N2CCN(S(=O)(=O)c3cn(C)cn3)CC2)CCC(F)(F)CC1` [compound 182, N-((4,4-Difluoro-1-(4-(1-methyl-1H-imidazol-4-ylsulfonyl)piperazin-1-yl)cyclohexyl)methyl)-2-fluoro-6-methylbenzamide Hydrochloride], which IC50 is on record?
Answer: 6 nM

Question: For `CCCS(=O)(=O)N1CCN(C2(CNC(=O)c3c(C)cccc3F)CCC(F)(F)CC2)CC1` [compound 147, N-((4,4-Difluoro-1-(4-(propylsulfonyl)piperazin-1-yl)cyclohexyl)methyl)-2-fluoro-6-methyl-benzamide Hydrochloride], which IC50 is on record?
Answer: 31 nM

Question: For `Cc1cccc(C)c1C(=O)NCC1(N2CCN(S(=O)(=O)c3cn(C)cn3)CC2)CCC(F)(F)CC1` [compound 164, N-((4,4-Difluoro-1-(4-(1-methyl-1H-imidazol-4-ylsulfonyl)piperazin-1-yl)cyclohexyl)methyl)-2,6-dimethylbenzamide Hydrochloride], which IC50 is on record?
Answer: 4 nM

Question: With `Cl.[2H]C([2H])([2H])n1cc(S(=O)(=O)N2CCN(C3(CNC(=O)c4ccc(C(F)(F)F)cc4Cl)CCC(F)(F)CC3)CC2)nn1` [compound 240, 2-Chloro-N-((4,4-difluoro-1-(4-(1-(tris-deutero)methyl-1H-1,2,3-triazol-4-ylsulfonyl)piperazin-1-yl)cyclohexyl)methyl)-4-(trifluoromethyl)benzamide Hydrochloride] as the compound, how does the IC50 read?
Answer: 49 nM

Question: Which IC50 does the source give for `CCCS(=O)(=O)N1CCN(C2(CNC(=O)c3c(F)cc(Cl)cc3Cl)CCC(F)(F)CC2)CC1` [compound 255, 2,4-Dichloro-N-((4,4-difluoro-1-(4-(propylsulfonyl)piperazin-1-yl)cyclohexyl)methyl)-6-Fluorobenzamide Hydrochloride] here?
Answer: 14 nM

Question: How did the IC50 turn out when `Cc1ccc(C(=O)NCC2(N3CCN(S(=O)(=O)c4cn(C)nn4)CC3)CCC(F)(F)CC2)c(Cl)c1F` [compound 242, 2-Chloro-N-((4,4-difluoro-1-(4-(1-methyl-1H-1,2,3-triazol-4-ylsulfonyl)piperazin-1-yl)cyclohexyl)methyl)-3-fluoro-4-methylbenzamide Hydrochloride] was run?
Answer: 1 nM

Question: With `CCS(=O)(=O)N1CCN(C2(CNC(=O)c3c(F)ccc(C(F)(F)F)c3F)CCC(F)(F)CC2)CC1` [compound 211, N-((1-(4-(Ethylsulfonyl)piperazin-1-yl)-4,4-difluorocyclohexyl)methyl)-2,6-difluoro-3-(trifluoromethyl) benzamide Hydrochloride] as the compound, how does the IC50 read?
Answer: 2780 nM

biological target: T2, glycine transporter-2 (GlyT-2) (Homo sapiens, UniProt Q9Y345); assay: [14C]glycine uptake assay in HEK-GlyT-2 transfected cells; assay type: cell-based; conditions: HEK-GlyT-2 cells
T2 construct: expressed in transfected cells
T2 sequence (Q9Y345 1-797): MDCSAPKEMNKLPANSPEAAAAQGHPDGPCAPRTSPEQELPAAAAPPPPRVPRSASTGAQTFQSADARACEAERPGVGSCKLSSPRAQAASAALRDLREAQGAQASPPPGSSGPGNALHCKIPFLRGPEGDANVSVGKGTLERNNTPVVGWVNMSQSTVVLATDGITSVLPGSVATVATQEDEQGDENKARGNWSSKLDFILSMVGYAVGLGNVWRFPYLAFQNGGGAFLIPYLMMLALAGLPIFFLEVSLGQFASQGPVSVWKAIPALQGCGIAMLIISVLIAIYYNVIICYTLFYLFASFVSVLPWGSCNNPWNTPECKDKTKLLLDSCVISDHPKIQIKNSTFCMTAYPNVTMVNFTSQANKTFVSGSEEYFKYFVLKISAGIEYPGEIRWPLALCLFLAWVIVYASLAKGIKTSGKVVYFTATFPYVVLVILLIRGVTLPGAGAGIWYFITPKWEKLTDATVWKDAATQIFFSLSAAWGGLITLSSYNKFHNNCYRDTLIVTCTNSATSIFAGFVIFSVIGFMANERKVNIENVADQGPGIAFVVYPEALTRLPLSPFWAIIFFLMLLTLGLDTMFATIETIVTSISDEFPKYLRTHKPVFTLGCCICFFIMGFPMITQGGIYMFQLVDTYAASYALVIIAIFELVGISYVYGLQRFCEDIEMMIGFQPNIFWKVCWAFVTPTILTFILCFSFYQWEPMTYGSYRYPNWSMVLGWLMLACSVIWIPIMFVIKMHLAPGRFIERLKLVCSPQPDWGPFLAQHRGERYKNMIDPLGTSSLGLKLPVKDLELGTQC

Question: How did the IC50 turn out when `Cn1cc(S(=O)(=O)N2CCN(C3(CNC(=O)c4ccc(Cl)cc4Cl)CCC(F)(F)CC3)CC2)nn1` [compound 228, 2,4-Dichloro-N-((4,4-difluoro-1-(4-(1-methyl-1H-l,2,3-triazol-4-ylsulfonyl)piperazin-1-yl)cyclohexyl)methyl) benzamide Hydrochloride] was run?
Answer: > 75 µM

Question: `CCCS(=O)(=O)N1CCN(C2(CNC(=O)c3cc(F)c(F)cc3Cl)CCC(F)(F)CC2)CC1` [compound 264, 2-Chloro-N-((4,4-difluoro-1-(4-(propylsulfonyl)piperazin-1-yl)cyclohexyl)methyl)-4,5-difluorobenzamide Hydrochloride] was tested. Which IC50 did it give?
Answer: > 75 µM

Question: `CCCS(=O)(=O)N1CCN(C2(CNC(=O)c3ccccc3)CCCCC2)CC1` [compound 24, N-((1-(4-(Propylsulfonyl)piperazin-1-yl)cyclohexyl)methyl) benzamide Hydrochloride] was tested. Which IC50 did it give?
Answer: > 75 µM

Question: With `CCCS(=O)(=O)N1CCN(C2(CNC(=O)c3ccc(Cl)cc3Cl)CCOCC2)CC1` [compound 118, 2,4-Dichloro-N-((4-(4-(propylsulfonyl)piperazin-1-yl)tetrahydro-2H-pyran-4-yl)methyl)benzamide Hydrochloride] as the compound, how does the IC50 read?
Answer: > 75 µM
